In general, Ki refers to a dissociation constant, usually derived from enzyme kinetics or from competition with a known ligand. A word on the melting point: it is the temperature, or range, at which the solid turns liquid.

One data set has as its target T1, human H3 receptor (Homo sapiens, UniProt Q9Y5N1).
T1 construct: expressed in transfected cells
The experiment in a line: Human H3 radioligand binding ([3H]-N-alpha-methylhistamine, CHO cell membranes). The settings on record: membranes of CHO cells stably expressing the human H3 receptor; [3H]-N-alpha-methylhistamine approx. 1 nM. As to the method: Methods: CHO cells stably expressing the human H3 receptor (GenBank: NM_007232) were harvested and cell pellets were frozen (—80° C.). Cell pellets were resuspended in 5 mM Tris-HCl, pH 7.5 with […] and a cocktail of protease inhibitors (Complete Protease Inhibitior Tablets, Roche Diagnostics). Cells were disrupted using a polytron cell homogenizer and the suspension was centrifuged at 1000×g for 10 minutes at 4° C. The pellet was discarded and the supernatant centrifuged at 40,000×g for 30 min at 4° C. This membrane pellet was washed in membrane buffer containing 50 mM Tris-HCl, pH 7.5 with 0.6 mM EDTA, 5 mM MgCl2 and protease inhibitors, recentrifuged as above and the final pellet resuspended in membrane buffer plus 250 mM sucrose and frozen at −80° C.
Radioligand Binding. Membranes were resuspended in 50 mM Tris HCl (pH 7.4), 5 mM MgCl2, 0.1% BSA. The membrane suspensions (10 μg protein per well) were incubated in a 96 well microtiter plate with [^3H]-N-alpha-methylhistamine (approximately 1 nM final concentration), test compounds at various concentrations (0.01 nM-30 μM) and scintillation proximity beads (Perkin Elmer, FlashBlueGPCR Scintillating Beads) in a final volume of 80 μl for 4 hours at room temperature, protected from light. Non-specific binding was determined in the presence of 10 μM clobenpropit. Radioligand bound to receptor, and therefore in proximity to the scintillation beads, was measured using a MicroBeta scintillation counter.

Molecules are shown by their SMILES. A value given as a limit tells only on which side of the number the result lay.

T1 sequence (Q9Y5N1 whole entry): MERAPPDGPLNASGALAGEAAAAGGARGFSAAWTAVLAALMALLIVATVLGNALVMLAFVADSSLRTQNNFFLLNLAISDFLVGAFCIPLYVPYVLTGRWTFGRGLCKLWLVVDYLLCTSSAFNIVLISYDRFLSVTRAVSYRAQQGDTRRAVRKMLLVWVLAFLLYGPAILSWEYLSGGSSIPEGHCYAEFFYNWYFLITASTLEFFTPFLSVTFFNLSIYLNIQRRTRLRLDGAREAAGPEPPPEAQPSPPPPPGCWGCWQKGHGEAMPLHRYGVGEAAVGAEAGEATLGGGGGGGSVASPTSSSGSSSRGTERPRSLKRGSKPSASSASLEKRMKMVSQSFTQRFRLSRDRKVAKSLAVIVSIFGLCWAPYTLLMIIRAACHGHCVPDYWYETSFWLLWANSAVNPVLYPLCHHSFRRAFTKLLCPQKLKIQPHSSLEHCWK

As to `C[C@@H]1CCCN1CCCOc1ccc(-c2ccc(NCc3ccccc3)nn2)cc1` [Example 29, Benzyl-(6-{4-[3-((R)-2-methyl-pyrrolidin-1-yl)-propoxy]-phenyl}-pyridazin-3-yl)amine], the melting point is 139.5 to 141 °C. The same molecule yielded a Ki on human H3 receptor of less than 50 nM.

Consider `CSc1ccc(-c2ccc(OCCCN3CCC[C@H]3C)cc2)nn1` [Example 30], for which the melting point came out at 101 °C. Moreover, the Ki at human H3 receptor was less than 50 nM.

The molecule `CSc1ccc(-c2ccc(OCCCN3CCCCC3)cc2)nn1` [Example 31, 3-Methylsulfanyl-6-[4-(3-piperidin-1-yl-propoxy)phenyl]pyridazine] came in with a melting point of 122 °C. The same molecule had a Ki at human H3 receptor of 51 to 100 nM.

In turn, `C[C@@H]1CCCN1CCCOc1ccc(-c2ccc(SCc3ccccc3)nn2)cc1` [Example 33, 3-Benzylsulfanyl-6-{4-[3-((R)-2-methyl-pyrrolidin-1-yl)-propoxy]phenyl}pyridazine] yielded a melting point of 104 °C. The molecule further returned a Ki on human H3 receptor of less than 50 nM.

Turning to `c1ccc(CSc2ccc(-c3ccc(OCCCN4CCCCC4)cc3)nn2)cc1` [Example 34, 3-Benzylsulfanyl-6-[4-(3-piperidin-1-yl-propoxy)-phenyl]pyridazine], the melting point came to 144 °C. The same molecule displayed a Ki at human H3 receptor of less than 50 nM.

As to `[O-][S+](Cc1ccccc1)c1ccc(-c2ccc(OCCCN3CCCCC3)cc2)nn1` (stereo not shown) [Example 36, 3-Phenylmethanesulfinyl-6-[4-(3-piperidin-1-yl-propoxy)phenyl]pyridazine], the melting point was 186 °C. Besides, the Ki at human H3 receptor is less than 50 nM.

The molecule `O=S(=O)(Cc1ccccc1)c1ccc(-c2ccc(OCCCN3CCCCC3)cc2)nn1` [Example 38, 3-Phenylmethanesulfonyl-6-[4-(3-piperidin-1-yl-propoxy)phenyl]pyridazine] returned a melting point of 134 °C. At human H3 receptor, this molecule had a Ki of less than 50 nM.

`COc1nnc(-c2ccc(OCCCN3CCC[C@H]3C)cc2)c2c1CCC2` [Example 39, 1-Methoxy-4-{4-[3-((R)-2-methylpyrrolidin-1-yl)-propoxy]-phenyl}6,7-dihydro-5H-cyclopenta[d]pyridazine] came in with a melting point of 109 °C. Also, the Ki at human H3 receptor is less than 50 nM.

Molecule `C[C@@H]1CCCN1CCCOc1ccc(-c2ccc(-c3cc4ccccc4o3)nn2)cc1` [Example 41, 3-Benzofuran-2-yl-6-{4-[3-((R)-2-methyl-pyrrolidin-1-yl)-propoxy]-phenyl}pyridazine] had a melting point of 180 °C. The molecule also yielded a Ki at human H3 receptor of less than 50 nM.

`C[C@@H]1CCCN1CCCOc1ccc(-c2nnc(SCc3ccccc3)c3c2CCC3)cc1` [Example 42, 1-Benzylsulfanyl-4-{4-[3-((R)-2-methyl-pyrrolidin-1-yl)propoxy]-phenyl}-6,7-dihydro-5H-cyclopenta[d]pyridazine] displayed a melting point of 122 °C. Moreover, the Ki on human H3 receptor is less than 50 nM.

Turning to `CC1CCCCN1C[C@H](C)COc1ccc(-c2ccc(Cl)nn2)cc1` (stereo partly drawn) [Example 44, 3-Chloro-6-{4-[(S)-2-methyl-3-(2-methylpiperidin-1-yl)propoxy]-phenyl}pyridazine], the melting point was in the range of 108 to 110 °C. The Ki at human H3 receptor was more than 101 nM.

(Values after US8076331B2, “Substituted pyridazine derivatives” (Cephalon, Inc., priority 2008, dated 2011).)
